Data from ChEMBL document CHEMBL1833863, “Synthesis, biological evaluation and molecular docking studies of 1,3,4-thiadiazole derivatives containing 1,4-benzodioxan as potential antitumor agents” (Bioorg Med Chem Lett, 2011).
Values after ≈ are worked out from the molar mass of the structure shown. Active and inactive are the calls of the source. The calls are words filed in the database; no cut-off is given here.

What was measured:
[1] = Antiproliferative activity against human SW1116 cells after 48 hrs by MTT assay; assay type: functional, cell-based; conditions: SW 1116, 48 h
[2] = tested on: HeLa; test: Antiproliferative activity against human HeLa cells after 48 hrs by MTT assay; assay type: functional, cell-based
[3] = tested on: HepG2; test: Antiproliferative activity against human HepG2 cells after 48 hrs by MTT assay; assay type: functional, cell-based; conditions: HepG2, 48 h
[4] = tested on: BGC-823; test: Antiproliferative activity against human BGC823 cells after 48 hrs by MTT assay; assay type: functional, cell-based; conditions: BGC-823, 48 h
[5] = biological target: T1, Focal adhesion kinase 1 (Homo sapiens, UniProt Q05397); test: Inhibition of human recombinant full-length FAK assessed as remaining ATP after 4 hrs by Kinase-Glo-luminescence assay
Target sequence in this assay (Q05397 whole entry): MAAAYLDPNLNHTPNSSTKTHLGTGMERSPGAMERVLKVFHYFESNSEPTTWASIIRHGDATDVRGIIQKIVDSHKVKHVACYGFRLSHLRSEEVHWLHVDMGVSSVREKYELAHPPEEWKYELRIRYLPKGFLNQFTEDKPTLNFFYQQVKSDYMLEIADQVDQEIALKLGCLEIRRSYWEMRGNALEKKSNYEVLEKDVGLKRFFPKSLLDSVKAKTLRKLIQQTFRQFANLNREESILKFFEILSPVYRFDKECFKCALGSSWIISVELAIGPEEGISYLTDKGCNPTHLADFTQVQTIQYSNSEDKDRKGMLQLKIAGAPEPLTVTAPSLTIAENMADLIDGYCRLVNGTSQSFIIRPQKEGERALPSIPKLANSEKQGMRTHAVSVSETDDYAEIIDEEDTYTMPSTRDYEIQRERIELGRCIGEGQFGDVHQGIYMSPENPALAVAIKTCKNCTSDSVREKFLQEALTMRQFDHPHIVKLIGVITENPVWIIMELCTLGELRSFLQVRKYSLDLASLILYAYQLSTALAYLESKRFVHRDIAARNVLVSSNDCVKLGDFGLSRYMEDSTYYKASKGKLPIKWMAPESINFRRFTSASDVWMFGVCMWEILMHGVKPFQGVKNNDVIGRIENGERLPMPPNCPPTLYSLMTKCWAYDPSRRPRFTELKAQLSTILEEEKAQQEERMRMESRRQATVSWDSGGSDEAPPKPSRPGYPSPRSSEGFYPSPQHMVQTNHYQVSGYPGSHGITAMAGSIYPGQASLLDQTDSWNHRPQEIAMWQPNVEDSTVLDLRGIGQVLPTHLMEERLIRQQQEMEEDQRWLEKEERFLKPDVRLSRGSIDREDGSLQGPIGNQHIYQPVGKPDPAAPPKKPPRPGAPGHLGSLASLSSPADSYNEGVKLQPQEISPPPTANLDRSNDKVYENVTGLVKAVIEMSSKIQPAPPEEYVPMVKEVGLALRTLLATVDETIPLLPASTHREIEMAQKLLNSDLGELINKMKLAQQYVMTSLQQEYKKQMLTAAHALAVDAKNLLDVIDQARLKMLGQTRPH

[6] = tested on: HepG2; test: Induction of apoptosis in human HepG2 cells assessed as late apoptotic cells at 4 uM after 24 hrs using Annexin V-FITC and propidium iodide staining by flow cytometry (reference value: 0.90 %); assay type: functional
[7] = tested on: HepG2; test: Induction of apoptosis in human HepG2 cells assessed as viable cells at 1 uM after 24 hrs using Annexin V-FITC and propidium iodide staining by flow cytometry (reference value: 96.26 %); assay type: functional; conditions: HepG2, 24 h, read-out: Activity
[8] = tested on: HepG2; test: Induction of apoptosis in human HepG2 cells assessed as viable cells at 2 uM after 24 hrs using Annexin V-FITC and propidium iodide staining by flow cytometry (reference value: 96.26 %); assay type: functional; conditions: HepG2, 24 h, read-out: Activity
[9] = tested on: HepG2; test: Induction of apoptosis in human HepG2 cells assessed as necrotic cells at 4 uM after 24 hrs using Annexin V-FITC and propidium iodide staining by flow cytometry (reference value: 2.82 %); assay type: functional
[10] = tested on: HepG2; test: Induction of apoptosis in human HepG2 cells assessed as viable cells at 4 uM after 24 hrs using Annexin V-FITC and propidium iodide staining by flow cytometry (reference value: 96.26 %); assay type: functional; conditions: HepG2, 24 h, read-out: Activity
[11] = tested on: HepG2; test: Induction of apoptosis in human HepG2 cells assessed as early apoptotic cells at 1 uM after 24 hrs using Annexin V-FITC and propidium iodide staining by flow cytometry (reference value: 0.02 %); assay type: functional
[12] = biological target: T1, Focal adhesion kinase 1; test: Inhibition of FAK in human HepG2 cells at 2.22 to 20 uM by Western blot analysis; assay type: cell-based
Target sequence in this assay (Q05397 2-1052 limits assumed): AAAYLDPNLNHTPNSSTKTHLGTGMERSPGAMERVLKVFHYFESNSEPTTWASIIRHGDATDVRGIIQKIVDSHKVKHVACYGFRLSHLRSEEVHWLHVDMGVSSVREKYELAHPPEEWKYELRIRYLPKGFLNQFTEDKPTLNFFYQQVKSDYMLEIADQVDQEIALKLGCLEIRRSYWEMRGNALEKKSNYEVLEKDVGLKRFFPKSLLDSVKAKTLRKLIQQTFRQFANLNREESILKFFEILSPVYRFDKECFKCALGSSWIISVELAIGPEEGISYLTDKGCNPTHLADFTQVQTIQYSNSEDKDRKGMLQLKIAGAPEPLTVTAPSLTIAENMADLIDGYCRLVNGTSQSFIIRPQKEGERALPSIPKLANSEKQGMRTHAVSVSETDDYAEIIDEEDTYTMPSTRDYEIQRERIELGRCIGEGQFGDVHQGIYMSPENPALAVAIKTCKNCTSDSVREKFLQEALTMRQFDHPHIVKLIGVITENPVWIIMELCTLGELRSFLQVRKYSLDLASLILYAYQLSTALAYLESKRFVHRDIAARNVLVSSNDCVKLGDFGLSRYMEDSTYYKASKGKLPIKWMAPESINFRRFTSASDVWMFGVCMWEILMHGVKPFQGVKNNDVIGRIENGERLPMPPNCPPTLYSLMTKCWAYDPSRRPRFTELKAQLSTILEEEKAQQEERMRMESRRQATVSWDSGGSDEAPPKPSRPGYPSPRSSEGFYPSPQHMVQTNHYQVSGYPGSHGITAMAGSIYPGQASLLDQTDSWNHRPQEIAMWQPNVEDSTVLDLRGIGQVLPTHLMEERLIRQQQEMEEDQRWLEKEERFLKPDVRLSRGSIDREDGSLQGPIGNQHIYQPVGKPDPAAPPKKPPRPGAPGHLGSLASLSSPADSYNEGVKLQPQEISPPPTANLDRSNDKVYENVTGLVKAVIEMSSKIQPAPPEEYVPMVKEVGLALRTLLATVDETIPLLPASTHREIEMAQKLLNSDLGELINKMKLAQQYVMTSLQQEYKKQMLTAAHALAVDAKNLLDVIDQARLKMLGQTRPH

[13] = tested on: HepG2; test: Induction of apoptosis in human HepG2 cells assessed as early apoptotic cells at 0.5 uM after 24 hrs using Annexin V-FITC and propidium iodide staining by flow cytometry (reference value: 0.02 %); assay type: functional
[14] = tested on: HepG2; test: Induction of apoptosis in human HepG2 cells assessed as late apoptotic cells at 0.5 uM after 24 hrs using Annexin V-FITC and propidium iodide staining by flow cytometry (reference value: 0.90 %); assay type: functional
[15] = tested on: HepG2; test: Induction of apoptosis in human HepG2 cells assessed as early apoptotic cells at 4 uM after 24 hrs using Annexin V-FITC and propidium iodide staining by flow cytometry (reference value: 0.02 %); assay type: functional
[16] = tested on: HepG2; test: Induction of apoptosis in human HepG2 cells assessed as necrotic cells at 0.5 uM after 24 hrs using Annexin V-FITC and propidium iodide staining by flow cytometry (reference value: 2.82 %); assay type: functional
[17] = tested on: HepG2; test: Induction of apoptosis in human HepG2 cells assessed as necrotic cells at 2 uM after 24 hrs using Annexin V-FITC and propidium iodide staining by flow cytometry (reference value: 2.82 %); assay type: functional
[18] = tested on: HepG2; test: Induction of apoptosis in human HepG2 cells assessed as late apoptotic cells at 1 uM after 24 hrs using Annexin V-FITC and propidium iodide staining by flow cytometry (reference value: 0.90 %); assay type: functional
[19] = tested on: HepG2; test: Induction of apoptosis in human HepG2 cells assessed as necrotic cells at 1 uM after 24 hrs using Annexin V-FITC and propidium iodide staining by flow cytometry (reference value: 2.82 %); assay type: functional
[20] = tested on: HepG2; test: Induction of apoptosis in human HepG2 cells assessed as viable cells at 0.5 uM after 24 hrs using Annexin V-FITC and propidium iodide staining by flow cytometry (reference value: 96.26 %); assay type: functional; conditions: HepG2, 24 h, read-out: Activity
[21] = tested on: HepG2; test: Induction of apoptosis in human HepG2 cells assessed as late apoptotic cells at 2 uM after 24 hrs using Annexin V-FITC and propidium iodide staining by flow cytometry (reference value: 0.90 %); assay type: functional
[22] = tested on: HepG2; test: Induction of apoptosis in human HepG2 cells assessed as cleaved PARP level at 0.74 to 20 […] uM by Western blotting; assay type: functional, cell-based
[23] = tested on: HepG2; test: Induction of apoptosis in human HepG2 cells assessed as early apoptotic cells at 2 uM after 24 hrs using Annexin V-FITC and propidium iodide staining by flow cytometry (reference value: 0.02 %); assay type: functional
[24] = tested on: HepG2; test: Induction of apoptosis in human HepG2 cells assessed as cleaved caspase 3 level at 0.74 to 20 […] uM by Western blotting; assay type: functional, cell-based

| Compound | EC50 [1] | EC50 [2] | EC50 [3] | EC50 [4] | EC50 [5] | also measured |
| --- | --- | --- | --- | --- | --- | --- |
| O=C(Nc1nnc(-c2ccc3c(c2)OCCO3)s1)c1ccccn1 | > 100 mg/L | > 100 mg/L | > 100 mg/L | 35.8 mg/L (≈ 105 µM) | – | – |
| O=C(Cc1ccc2ccccc2c1)Nc1nnc(-c2ccc3c(c2)OCCO3)s1 | 43.6 mg/L (≈ 108 µM) | > 100 mg/L | > 100 mg/L | 67.9 mg/L (≈ 168 µM) | – | – |
| Cc1ccccc1C(=O)Nc1nnc(-c2ccc3c(c2)OCCO3)s1 | > 100 mg/L | > 100 mg/L | > 100 mg/L | > 100 mg/L | – | – |
| O=C(Cc1cccc(Cl)c1)Nc1nnc(-c2ccc3c(c2)OCCO3)s1 | 47.6 mg/L (≈ 123 µM) | 34.9 mg/L (≈ 89.9 µM) | 18.4 mg/L (≈ 47.5 µM) | > 100 mg/L | 46.7 µM | – |
| O=C(Cc1ccc(F)cc1)Nc1nnc(-c2ccc3c(c2)OCCO3)s1 | > 100 mg/L | > 100 mg/L | 23.8 mg/L (≈ 64 µM) | > 100 mg/L | 51.2 µM | – |
| O=c1[nH]cc(F)c(=O)[nH]1 [FLUOROURACIL] | 28.5 mg/L (≈ 219 µM) | 31 mg/L (≈ 238 µM) | 23.3 mg/L (≈ 179 µM) | 17.4 mg/L (≈ 134 µM) | – | – |
| CCOc1ccc(CC(=O)Nc2nnc(-c3ccc4c(c3)OCCO4)s2)cc1OCC | > 100 mg/L | > 100 mg/L | > 100 mg/L | > 100 mg/L | – | – |
| Cc1ccc(C(=O)Nc2nnc(-c3ccc4c(c3)OCCO4)s2)cn1 | > 100 mg/L | > 100 mg/L | > 100 mg/L | > 100 mg/L | – | – |
| O=C(Cc1cccc(Br)c1)Nc1nnc(-c2ccc3c(c2)OCCO3)s1 | > 100 mg/L | 54.2 mg/L (≈ 125 µM) | 45.8 mg/L (≈ 106 µM) | > 100 mg/L | 60.5 µM | – |
| CC(=O)c1ccc(CC(=O)Nc2nnc(-c3ccc4c(c3)OCCO4)s2)cc1 | > 100 mg/L | > 100 mg/L | > 100 mg/L | > 100 mg/L | – | – |
| O=C(Nc1nnc(-c2ccc3c(c2)OCCO3)s1)c1ccc(Cl)nc1 | 30.3 mg/L (≈ 81 µM) | > 100 mg/L | 15.3 mg/L (≈ 41 µM) | > 100 mg/L | 36.5 µM | – |
| O=C(Cc1ccccc1)Nc1nnc(-c2ccc3c(c2)OCCO3)s1 | 51.3 mg/L (≈ 145 µM) | 49.9 mg/L (≈ 141 µM) | 18.3 mg/L (≈ 51.7 µM) | 27.4 mg/L (≈ 77.5 µM) | 50.2 µM | – |
| COc1cccc(CC(=O)Nc2nnc(-c3ccc4c(c3)OCCO4)s2)c1 | > 100 mg/L | > 100 mg/L | > 100 mg/L | > 100 mg/L | – | – |
| O=C(Nc1nnc(-c2ccc3c(c2)OCCO3)s1)c1ccncc1 | > 100 mg/L | > 100 mg/L | > 100 mg/L | 41 mg/L (≈ 121 µM) | – | – |
| O=C(Nc1nnc(-c2ccc3c(c2)OCCO3)s1)c1ccccc1 | 67.6 mg/L (≈ 199 µM) | > 100 mg/L | 34.8 mg/L (≈ 102 µM) | 46.1 mg/L (≈ 136 µM) | 62 µM | – |
| O=C(Cc1ccc(Cl)cc1)Nc1nnc(-c2ccc3c(c2)OCCO3)s1 | 40.7 mg/L (≈ 105 µM) | 26.8 mg/L (≈ 69 µM) | 13.8 mg/L (≈ 35.5 µM) | > 100 mg/L | 31.3 µM | – |
| O=C(CCc1ccccc1)Nc1nnc(-c2ccc3c(c2)OCCO3)s1 | 16.2 mg/L (≈ 44 µM) | 32.5 mg/L (≈ 88.3 µM) | 15.3 mg/L (≈ 41.7 µM) | 14.2 mg/L (≈ 38.7 µM) | 38 µM | – |
| O=C(/C=C/c1ccccc1)Nc1nnc(-c2ccc3c(c2)OCCO3)s1 | 60.2 mg/L (≈ 165 µM) | > 100 mg/L | 10.3 mg/L (≈ 28.1 µM) | 45.4 mg/L (≈ 124 µM) | 29.5 µM | Activity [6]: 23.25%; viability at 1 µM [7]: 58.9%; viability at 2 µM [8]: 50.8%; Activity [9]: 26.23%; viability at 4 µM [10]: 39.5%; Activity [11]: 3.49%; inhibition [12]: Active; Activity [13]: 0.8%; Activity [14]: 8%; Activity [15]: 11%; Activity [16]: 32.8%; Activity [17]: 27.21%; Activity [18]: 13.17%; Activity [19]: 24.49%; viability at 0.5 µM [20]: 58.3%; Activity [21]: 18%; Activity [22]: Active; Activity [23]: 4.03%; Activity [24]: Active |
| O=C(Cc1ccc(Br)cc1)Nc1nnc(-c2ccc3c(c2)OCCO3)s1 | > 100 mg/L | 51.2 mg/L (≈ 118 µM) | 42.1 mg/L (≈ 97.5 µM) | > 100 mg/L | 54.9 µM | – |
| Nc1ccc(C(=O)Nc2nnc(-c3ccc4c(c3)OCCO4)s2)cc1 | 41.2 mg/L (≈ 116 µM) | > 100 mg/L | > 100 mg/L | > 100 mg/L | – | – |
